Earlier results, collected in patent US20130108599A1, “Herbal Vaginal Compositions” (priority 2011, published 2013).

Experiments:
[1] = test system: Candida albicans (KCTC 7270)

SMILES | growth of C. albicans [1] | anti-microbial activity among the catechins (vaginal pathogens)
Cn1c(=O)c2c(ncn2C)n(C)c1=O [caffeine] | strongly inhibited | –
O=C(O[C@@H]1Cc2c(O)cc(O)cc2O[C@@H]1c1cc(O)c(O)c(O)c1)c1cc(O)c(O)c(O)c1 [epigallocatechin gallate] | – | strongest anti-microbial activity
